Experiments:
[1] = molecular target: PCSK9 secreted by HepG2 cells (Homo sapiens (Human), UniProt Q8NBP7); experiment: Effect on the concentration of PCSK9 secreted by HepG2 cells (ELISA); format: cell-based; details: 48 hours incubation, read-out: Inhibitory activity on PCSK9, IC50
Excerpt: • 1. Experimental objective: To detect the inhibitory effect of the compounds on PCSK9. • 2. Experimental instruments and reagents: • 2.1 Instruments:
• CircuLex Human PCSK9 ELISA kit (MBL: CY-8079); • DMEM (Gibco: 31966-021) • FBS (Sigma: S5394) • Compound plate (Thermo: 1353506) • Complete culture medium: DMEM+10% FBS+1×P/S; • Experimental culture medium: DMEM+10% FBS • Cell strain: HepG2 (ATCC: HB-8065)
A self-adhesive seal was applied, the plate was placed on a plate shaker at room temperature, gently shaken, uniformly mixed, and incubated for 1 hour. • 11) The plate was placed on the plate washer, the washing liquid was set to 350 μL per well, and the plate was washed 4 times repeatedly. • 12) 100 μL/well of an HRP-conjugated detection antibody was added, a self-adhesive seal was applied, and the plate was placed on the plate shaker, well mixed uniformly, and incubated for 1 hour. • 13) The plate was placed on the plate washer, the washing liquid was set to 350 μL per well, and the plate was washed 4 times repeatedly. • 14) 100 μL/well of Substrate reagent was added, and the plate was placed in the dark, applied with a self-adhesive seal, placed on the plate shaker, well mixed uniformly, and incubated for 10-20 minutes. • 15) 100 μL/well of Stop solution (1N H2SO4) was added and mixed uniformly. • 16) The optical density (OD) value in each well was measured in sequence at a wavelength of 450 nm by the microplate reader. Detection was carried out within 30 min after the reaction was stopped.
After the OD values were read by the microplate reader, the OD value of the 0-concentration standard in the standard group was subtracted from the OD values of the standards, control group, and samples to obtain the actual OD values for these wells. A standard curve was plotted with Graphpad and the concentration of the sample was calculated. If the dilution was performed during the sample detection, the calculated sample concentration was necessarily multiplied by the corresponding dilution ratio in the final calculation, which was the actual concentration of the sample. Inhibition rate=(actual concentration in control-actual concentration in sample)/actual concentration in control*100. According to the inhibition rates corresponding to the different concentrations, IC50 was derived by Graphpad.

[2] = Pharmacokinetic determination in mice (plasma); format: in vivo, C57BL/6J mice; details: C57 mice, PO administration, 5 mpk; for AUC(0-inf) / half-life / MRT / Cmax: male, C57BL/6J, mouse, 5 mg/kg; for AUC(0-inf): read-out: Area under the curve AUC0-∞; for half-life: read-out: Half-life t1/2 (converted); for MRT: read-out: Mean residence time MRT; for Cmax: read-out: Plasma concentration Cmax
Description: C57BL/6J mice were used as test animals to study the pharmacokinetic behavior of the compounds of the present disclosure in mice (plasma) after oral and intravenous administration.
C57 mice, male, purchased from Shanghai Bk Lab Animal Co., Ltd., with animal production license number (SCXK (Shanghai) 2013-0006 NO.311620400001794).
• Preparation of oral drug: 10% Solutol HS15
10 g of Solutol HS15 solid was weighed, dissolved in 90 mL of pure water, uniformly mixed, stirred, and ultrasonically treated to form a clear solution.
The compound of the present disclosure was weighed and dissolved in this solution, uniformly shaken, and ultrasonically treated for 15 minutes to obtain a colorless clear solution with a concentration of 0.5 mg/mL. • Preparation of intravenous drug: 5% DMSO+10% Solutol HS15+85% PBS […]
3 male C57 mice were fasted overnight and then respectively administered PO at a dose of 5 mg/kg and a volume of 10 mL/kg. […]
Before and after administration of mice, 0.04 mL of blood was collected from the orbit at 0.083 (iv), 0.25, 0.5, 1, 2, 4, 8, and 24 hours, and placed in EDTA-K2 test tubes, which was centrifuged at 6000 rpm at 4° C. for 6 min to separate plasma which was stored at −80° C.; and the […] were fed 4 h after administration.
The final determination results were obtained by using an LCMS/MS method.
The main pharmacokinetic parameters were calculated using WinNonlin 6.1.

PCSK9 secreted by HepG2 cells, sequence (Q8NBP7 153-692): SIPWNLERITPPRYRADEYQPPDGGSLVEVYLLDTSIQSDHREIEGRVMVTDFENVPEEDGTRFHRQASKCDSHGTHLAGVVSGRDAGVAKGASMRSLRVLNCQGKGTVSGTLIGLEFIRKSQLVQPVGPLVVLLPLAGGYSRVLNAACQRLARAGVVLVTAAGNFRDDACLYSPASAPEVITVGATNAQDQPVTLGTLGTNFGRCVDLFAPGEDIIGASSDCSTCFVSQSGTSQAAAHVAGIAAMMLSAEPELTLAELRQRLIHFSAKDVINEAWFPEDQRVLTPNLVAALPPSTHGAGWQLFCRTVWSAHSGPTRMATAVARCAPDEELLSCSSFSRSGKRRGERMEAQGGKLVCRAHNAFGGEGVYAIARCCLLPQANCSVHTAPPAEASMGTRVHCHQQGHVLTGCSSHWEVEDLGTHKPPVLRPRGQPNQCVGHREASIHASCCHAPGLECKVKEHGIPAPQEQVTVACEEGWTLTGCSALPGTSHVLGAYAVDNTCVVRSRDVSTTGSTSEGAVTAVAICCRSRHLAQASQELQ
PCSK9 secreted by HepG2 cells, sequence (Q8NBP7 31-152 partner): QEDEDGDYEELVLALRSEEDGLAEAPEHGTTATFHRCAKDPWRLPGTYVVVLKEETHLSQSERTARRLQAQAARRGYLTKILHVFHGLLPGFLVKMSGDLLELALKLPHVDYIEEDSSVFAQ

Compound	IC50 [1] [µM]	also measured
O=c1ccccn1-c1ccc(N[C@H]2CC[C@H](Nc3ncc(C4CC4)nn3)C2)nc1 [Example 63, 6′-(((1S,3S)-3-((6-cyclopropyl-1,2,4-triazin-3-yl)amino)cyclopentyl)amino)-2H-[1,3′-bipyridinyl]-2-one]	10.5	
CC(C)(O)c1cccn(-c2ccc(N[C@H]3CC[C@H](Nc4ncc(OC(F)F)cn4)C3)nc2)c1=O [Example 64, 6′-(((1S,3S)-3-((5-(difluoromethoxy)pyrimidin-2-yl)amino)cyclopentyl)amino]-3-(2-hydroxyprop-2-yl)-2H-[1,3′-bipyridinyl]-2-one]	10	
O=C1c2cnccc2CN1c1ccc(N[C@H]2CC[C@H](Nc3ncc(OC(F)F)cn3)C2)nc1 [Example 75, 2-(6-(((1S,3S)-3-((5-(difluoromethoxy)pyrimidin-2-yl)amino)cyclopentyl)amino)pyridin-3-yl)-1,2-dihydro-3H-pyrrolo[3,4-c]pyridin-3-one]	9	
O=c1ccccn1-c1ccc(N[C@H]2CC[C@H](Nc3nsc(C4CC4)n3)C2)nc1 [Example 78, 6′-(((1S,3S)-3-((5-cyclopropyl-1,2,4-thiadiazol-3-yl)amino)cyclopentyl)amino)-2H-[1,3′-bipyridinyl]-2-one]	14.2	
Cc1ccn2nc(N[C@H]3CC[C@H](Nc4ccc(-n5ccccc5=O)cn4)C3)nc2c1 [Example 87, 6′-(((1S,3S)-3-((7-methyl-[1,2,4]triazolo[1,5-a]pyridin-2-yl)amino)cyclopentyl)amino)-2H-[1,3′-bipyridinyl]-2-one]		Time to peak tmax [2]: 0.25 h; AUC(0-inf) [2]: 10700 ng·h/mL; half-life [2]: 4.7 h; MRT [2]: 3.1 h; Cmax [2]: 5510 ng/mL
O=S1(=O)CCCN1c1ccc(N[C@H]2CC[C@H](Nc3ncc(OC(F)F)cn3)C2)nc1 [Example 91, 2-(6-(((1S,3S)-3-((5-(difluoromethoxy)pyrimidin-2-yl)amino)cyclopentyl)amino)pyridin-3-yl)-1,1-dioxoisothiazolane]	21.8	
O=c1n(-c2ccc(N[C@H]3CC[C@H](Nc4ncc(OC(F)F)cn4)C3)nc2)c2nccnc2n1C1CC1 [Example 97, 1-Cyclopropyl-3-(6-(((1S,3S)-3-((5-(difluoromethoxy)pyrimidin-2-yl)amino)cyclopentyl)amino)pyridin-3-yl)-1,3-dihydro-2H-imidazo[4,5-b]pyrazin-2-one]	11.6	
O=c1c(-c2ccc(N[C@H]3CC[C@H](Nc4ncc(OC(F)F)cn4)C3)nc2)cnc2ccccn12 [Example 108, 3-(6-(((1S,3S)-3-((5-(difluoromethoxy)pyrimidin-2-yl)amino)cyclopentyl)amino)pyridin-3-yl)-4H-pyridino[1,2-a]pyrimidin-4-one]	3.8	
Cc1cc2c(cn1)CN(c1ccc(N[C@H]3CC[C@H](Nc4ncc(OC(F)F)cn4)C3)nc1)C2=O [Example 116, 2-(6-(((1S,3S)-3-((5-(difluoromethoxy)pyrimidin-2-yl)amino)cyclopentyl)amino)-3-yl)-6-methyl-2,3-dihydro-1H-pyrrolo[3,4-c]pyridin-1-one]	2.6	Time to peak tmax [2]: 1 h; AUC(0-inf) [2]: 42500 ng·h/mL; half-life [2]: 5.1 h; MRT [2]: 7.2 h; Cmax [2]: 4060 ng/mL
Cc1cnn2c(-c3ccc(N[C@H]4CC[C@H](Nc5ncc(OC(F)F)cn5)C4)nc3)cccc12 [Example 117, (1S,3S)—N1-(5-(difluoromethoxy)pyrimidin-2-yl)-N3-(5-(3-methylpyrazolo[1,5-a]pyridin-7-yl)pyridin-2-yl)cyclopentane-1,3-diamine]	3.6	
N#Cc1cnn2c(-c3ccc(N[C@H]4CC[C@H](Nc5ncc(OC(F)F)cn5)C4)nc3)ccnc12 [Example 118, 7-(6-(((1S,3S)-3-((5-(difluoromethoxy)pyrimidin-2-yl)amino)cyclopentyl)amino)pyridin-3-yl) pyrazolo[1,5-a]pyrimidine-3-carbonitrile]	0.5	
CC1(C)CCN(c2ccc(N[C@H]3CC[C@H](Nc4ncc(OC(F)F)cn4)C3)nc2)S1(=O)=O [Example 119]	17.4	
CC1(C)CCCN(c2ccc(N[C@H]3CC[C@H](Nc4ncc(OC(F)F)cn4)C3)nc2)S1(=O)=O [Example 120]	13.5	
O=S1(=O)c2ncccc2CN1c1ccc(N[C@H]2CC[C@H](Nc3ncc(OC(F)F)cn3)C2)nc1 [Example 121]	27.3	
O=C1c2cccnc2CN1c1ccc(N[C@H]2CC[C@H](Nc3ncc(OC(F)(F)Br)cn3)C2)nc1 [Example 123, 6-(6-(((1S,3S)-3-((5-(bromodifluoromethoxy)pyrimidin-2-yl)amino)cyclopentyl)amino)pyridin-3-yl)-6,7-dihydro-5H-pyrrolo[3,4-b]pyridin-5-one]	3.3	
Cc1nc(N[C@H]2CC[C@H](Nc3ccc(N4Cc5cccnc5C4=O)cn3)C2)nc2ccccc12 [Example 131, 6-(6-(((1S,3S)-3-((4-methylquinazolin-2-yl)amino)cyclopentyl)amino)pyridin-3-yl)-5,6-dihydro-7H-pyrrolo[3,4-b]pyridin-7-one]	2	
O=C1c2ncc(F)cc2CN1c1ccc(N[C@H]2CC[C@H](Nc3ncc(OC(F)F)cn3)C2)nc1 [Example 136]	9.6	
O=C1c2cc(F)cnc2CN1c1ccc(N[C@H]2CC[C@H](Nc3ncc(OC(F)F)cn3)C2)nc1 [Example 137]	7.4	
O=C1c2cc(C(F)(F)F)ncc2CN1c1ccc(N[C@H]2CC[C@H](Nc3ncc(OC(F)F)cn3)C2)nc1 [Example 138, 2-(6-(((1S,3S)-3-((5-(difluoromethoxy)pyrimidin-2-yl)amino)cyclopentyl)amino)pyridin-3-yl)-6-trifluoromethyl-2,3-dihydro-1H-pyrrolo[3,4-c]pyridin-1-one]	0.5	
FC(F)Oc1cnc(N[C@H]2CC[C@H](Nc3ccc(-c4cccc5ncnn45)cn3)C2)nc1 [Example 139, (1S,3S)—N1-(5-([1,2,4]triazolo[1,5-a]pyridin-5-yl)pyridin-2-yl)-N3-(5-(difluoromethoxy)pyrimidin-2-yl)cyclopentane-1,3-diamine]	10.4	
O=C1c2nc(C3CC3)ccc2CN1c1ccc(N[C@H]2CC[C@H](Nc3ncc(OC(F)F)cn3)C2)nc1 [Example 141]	1.8	
CC1(C)C(=O)N(c2ccc(N[C@H]3CC[C@H](Nc4ncc(OC(F)F)cn4)C3)nc2)c2cccnc21 [Example 150]	14.4	
O=S1(=O)c2ncccc2CN1c1ccc(N[C@H]2CC[C@H](Nc3ncc(C(F)(F)F)nn3)C2)nc1 [Example 154, 2-(6-(((1S,3S)-3-((6-(trifluoromethyl)-1,2,4-triazin-3-yl)amino)cyclopentyl)amino)pyridin-3-yl)-2,3-dihydroisothiazolo[5,4-b]pyridine 1,1-dioxide]	13.2	
Cc1cc2c(cn1)CN(c1ccc(N[C@H]3CC[C@H](Nc4ncc(C5CC5)nn4)C3)nc1)C2=O [Example 160]	6.2	
O=C1c2ncc(F)cc2CN1c1ccc(N[C@H]2CC[C@H](Nc3nc4cc(C(F)(F)F)ccn4n3)C2)nc1 [Example 163, 3-Fluoro-6-(6-(((1S,3S)-3-((7-(trifluoromethyl)-[1,2,4]triazolo[1,5-a]pyridin-2-yl)amino)cyclopentyl)amino)pyridin-3-yl)-5,6-dihydro-7H-pyrrolo[3,4-b]pyridin-7-one]	12	
